In US20250177318A1, “CMT-3 FORMULATIONS AND METHODS OF USING THE SAME” (The Research Foundation for the State University of New York, priority 2022, published 2025):

Columns and labels:
IL-1β = conditions: leucocytes isolated from patients within 24 h of the onset of direct ARDS; cited from earlier work
[1] = Solubility of CMT-3 in aqueous solutions (statement); format: physicochemical

Solubility in aqueous solutions [1]: barely dissolved in aqueous solutions
SMILES: NC(=O)C1=C(O)CC2CC3Cc4cccc(O)c4C(=O)C3=C(O)[C@]2(O)C1=O (some centres unmarked) [CMT-3, 6-demethyl-6-deoxy-4-de(dimethylamino)tetracycline]
IL-1β production in alveolar leucocytes (IL-1β): significantly suppressed
